In ChEMBL document CHEMBL1909046, “DrugMatrix in vitro pharmacology data” one finds IC50 data, which are given here for 6 compounds.

The target of one assay is Beta-1 adrenergic receptor (Homo sapiens, UniProt P08588). The experiment in a line: DRUGMATRIX: Adrenergic beta1 radioligand binding (ligand: [125I] Cyanopindolol). The assay is classed as cell membranes, CHO-K1, Membrane. The settings on record: cho-k1; Not Active = under 50% inhibition at 10 µM.
Sequence of Beta-1 adrenergic receptor (P08588 whole entry): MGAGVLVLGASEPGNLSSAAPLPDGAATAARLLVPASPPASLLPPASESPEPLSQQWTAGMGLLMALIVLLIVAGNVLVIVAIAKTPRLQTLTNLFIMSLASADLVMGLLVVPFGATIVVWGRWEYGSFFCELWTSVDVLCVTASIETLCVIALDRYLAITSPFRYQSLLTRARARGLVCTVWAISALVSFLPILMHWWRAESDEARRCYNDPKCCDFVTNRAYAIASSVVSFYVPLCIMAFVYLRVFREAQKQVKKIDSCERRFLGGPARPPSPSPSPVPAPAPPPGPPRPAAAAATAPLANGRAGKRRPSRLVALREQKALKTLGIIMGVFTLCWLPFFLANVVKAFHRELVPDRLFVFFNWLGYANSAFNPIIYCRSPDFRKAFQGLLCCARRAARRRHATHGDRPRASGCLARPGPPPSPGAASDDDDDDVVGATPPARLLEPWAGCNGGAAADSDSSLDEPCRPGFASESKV
For `Clc1cc2c(cc1Cl)Oc1cc(Cl)c(Cl)cc1O2` [2,3,7,8-TETRACHLORODIBENZO-P-DIOXIN], the IC50 entry was “Not Active”.
Same read-out and setting: for `C=C1/C(=C\C=C2/CCC[C@]3(C)[C@@H]([C@H](C)CCCC(C)C)CC[C@@H]23)C[C@@H](O)C[C@@H]1O` [ALFACALCIDOL] the value was “Not Active”; for `CCCCCC[C@H]1C(=O)O[C@H](C)[C@H](NC(=O)c2cccc(NC=O)c2O)C(=O)O[C@@H](C)[C@@H]1OC(=O)CC(C)C` [ANTIMYCIN A], “Not Active”.
On the same count and under the same terms, with `C[C@@H]1CC[C@H]2[C@@H](C)C(=O)O[C@@H]3O[C@@]4(C)CC[C@@H]1[C@]32OO4` [ARTEMISININ] the entry was “Not Active”; with `N=C(N)N/N=C/c1c(Cl)cccc1Cl` [GUANABENZ], “Not Active”.

For another assay, the target named is D(3) dopamine receptor (Homo sapiens, UniProt P35462). Description: DRUGMATRIX: Dopamine D3 radioligand binding (ligand: [3H] Spiperone). The assay is classed as cell membranes, CHO, Membrane. The settings on record: cho.
Sequence of D(3) dopamine receptor (P35462 whole entry): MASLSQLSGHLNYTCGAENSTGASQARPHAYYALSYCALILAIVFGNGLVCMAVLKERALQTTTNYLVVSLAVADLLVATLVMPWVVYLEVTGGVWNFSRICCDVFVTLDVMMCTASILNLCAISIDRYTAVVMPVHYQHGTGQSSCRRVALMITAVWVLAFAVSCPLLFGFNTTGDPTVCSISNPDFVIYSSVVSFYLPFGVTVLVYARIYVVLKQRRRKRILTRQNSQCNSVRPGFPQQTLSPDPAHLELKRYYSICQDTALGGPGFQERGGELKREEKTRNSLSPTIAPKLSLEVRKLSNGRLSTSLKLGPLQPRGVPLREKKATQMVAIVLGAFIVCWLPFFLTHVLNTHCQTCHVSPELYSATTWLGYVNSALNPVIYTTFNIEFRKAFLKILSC
As for `Clc1cc2c(cc1Cl)Oc1cc(Cl)c(Cl)cc1O2` [2,3,7,8-TETRACHLORODIBENZO-P-DIOXIN], the IC50 entry is listed as “Not Active”.
Still for that read-out and setting: with `C=C1/C(=C\C=C2/CCC[C@]3(C)[C@@H]([C@H](C)CCCC(C)C)CC[C@@H]23)C[C@@H](O)C[C@@H]1O` [ALFACALCIDOL] the entry was “Not Active”.
For the compound `CCCCCC[C@H]1C(=O)O[C@H](C)[C@H](NC(=O)c2cccc(NC=O)c2O)C(=O)O[C@@H](C)[C@@H]1OC(=O)CC(C)C` [ANTIMYCIN A], the IC50 result is on record as “Not Active”.
With `C[C@@H]1CC[C@H]2[C@@H](C)C(=O)O[C@@H]3O[C@@]4(C)CC[C@@H]1[C@]32OO4` [ARTEMISININ], the IC50 entry is reported as “Not Active”.
On to `N=C(N)N/N=C/c1c(Cl)cccc1Cl` [GUANABENZ], for which the IC50 result was “Not Active”.
On the same count and under the same terms, for `NC[C@H]1O[C@H](O[C@H]2[C@H](O)[C@@H](O[C@H]3O[C@H](CO)[C@@H](O)[C@H](N)[C@H]3O)[C@H](N)C[C@@H]2N)[C@H](O)[C@@H](O)[C@@H]1O` [KANAMYCIN] the value was “Not Active”.

In another assay the target is T1, Muscarinic acetylcholine receptor M5 (Homo sapiens, UniProt P08912). Note: in other assays of this panel Not Active means under 50% inhibition at 10 µM.
T1 sequence (P08912 whole entry): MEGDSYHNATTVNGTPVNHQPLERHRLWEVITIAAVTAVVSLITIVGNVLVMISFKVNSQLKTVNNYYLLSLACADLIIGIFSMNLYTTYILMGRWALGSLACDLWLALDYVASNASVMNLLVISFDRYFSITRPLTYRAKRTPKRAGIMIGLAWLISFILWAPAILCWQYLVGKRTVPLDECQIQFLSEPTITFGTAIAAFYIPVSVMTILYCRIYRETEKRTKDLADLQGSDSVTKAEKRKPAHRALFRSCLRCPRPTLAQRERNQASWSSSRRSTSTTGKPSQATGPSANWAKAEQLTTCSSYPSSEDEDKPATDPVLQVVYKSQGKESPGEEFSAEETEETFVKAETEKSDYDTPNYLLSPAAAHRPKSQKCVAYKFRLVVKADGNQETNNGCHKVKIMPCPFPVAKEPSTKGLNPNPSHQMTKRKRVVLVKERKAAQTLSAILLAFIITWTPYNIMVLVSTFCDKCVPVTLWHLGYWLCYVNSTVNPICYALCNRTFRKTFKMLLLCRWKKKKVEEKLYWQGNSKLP
Experiment: not given
The assay is classed as cell membranes, Membrane. The conditions noted are these: cho-k1.
`Clc1cc2c(cc1Cl)Oc1cc(Cl)c(Cl)cc1O2` [2,3,7,8-TETRACHLORODIBENZO-P-DIOXIN]: the IC50 entry is given as “Not Active”.
On the same count and under the same terms, with `C=C1/C(=C\C=C2/CCC[C@]3(C)[C@@H]([C@H](C)CCCC(C)C)CC[C@@H]23)C[C@@H](O)C[C@@H]1O` [ALFACALCIDOL] the entry was “Not Active”.
As for `CCCCCC[C@H]1C(=O)O[C@H](C)[C@H](NC(=O)c2cccc(NC=O)c2O)C(=O)O[C@@H](C)[C@@H]1OC(=O)CC(C)C` [ANTIMYCIN A], the IC50 result was “Not Active”.
The same measure, in the same setting: for `C[C@@H]1CC[C@H]2[C@@H](C)C(=O)O[C@@H]3O[C@@]4(C)CC[C@@H]1[C@]32OO4` [ARTEMISININ] the value was “Not Active”; for `N=C(N)N/N=C/c1c(Cl)cccc1Cl` [GUANABENZ], “Not Active”; for `NC[C@H]1O[C@H](O[C@H]2[C@H](O)[C@@H](O[C@H]3O[C@H](CO)[C@@H](O)[C@H](N)[C@H]3O)[C@H](N)C[C@@H]2N)[C@H](O)[C@@H](O)[C@@H]1O` [KANAMYCIN], “Not Active”.

A further assay concerns the target T2, Alpha-1B adrenergic receptor (Rattus norvegicus, UniProt P15823).
T2 sequence (P15823 whole entry): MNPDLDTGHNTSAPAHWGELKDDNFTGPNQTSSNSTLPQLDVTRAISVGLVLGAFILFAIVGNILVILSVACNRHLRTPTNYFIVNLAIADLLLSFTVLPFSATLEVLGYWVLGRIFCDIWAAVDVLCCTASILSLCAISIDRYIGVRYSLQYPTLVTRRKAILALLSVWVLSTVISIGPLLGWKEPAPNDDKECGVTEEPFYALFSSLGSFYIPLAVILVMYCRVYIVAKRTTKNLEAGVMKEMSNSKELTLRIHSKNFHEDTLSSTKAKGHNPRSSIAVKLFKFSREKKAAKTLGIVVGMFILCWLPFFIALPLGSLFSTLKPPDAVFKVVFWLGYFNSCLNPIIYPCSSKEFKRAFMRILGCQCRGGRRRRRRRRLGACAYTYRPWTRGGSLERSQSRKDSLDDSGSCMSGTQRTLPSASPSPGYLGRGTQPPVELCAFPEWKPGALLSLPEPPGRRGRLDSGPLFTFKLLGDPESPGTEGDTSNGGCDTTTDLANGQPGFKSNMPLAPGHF
The experiment in a line: DRUGMATRIX: Alpha-1B adrenergic receptor radioligand binding (ligand: prazosin). Type of assay: cell membranes, Wistar, Liver, Membrane. The settings on record: Not Active = under 50% inhibition at 10 µM.
Regarding `Clc1cc2c(cc1Cl)Oc1cc(Cl)c(Cl)cc1O2` [2,3,7,8-TETRACHLORODIBENZO-P-DIOXIN], the IC50 entry is given as “Not Active”.
With `C=C1/C(=C\C=C2/CCC[C@]3(C)[C@@H]([C@H](C)CCCC(C)C)CC[C@@H]23)C[C@@H](O)C[C@@H]1O` [ALFACALCIDOL], the IC50 result is “Not Active”.
Turning to `CCCCCC[C@H]1C(=O)O[C@H](C)[C@H](NC(=O)c2cccc(NC=O)c2O)C(=O)O[C@@H](C)[C@@H]1OC(=O)CC(C)C` [ANTIMYCIN A], the IC50 result is “Not Active”.
On to `C[C@@H]1CC[C@H]2[C@@H](C)C(=O)O[C@@H]3O[C@@]4(C)CC[C@@H]1[C@]32OO4` [ARTEMISININ], for which the IC50 entry was “Not Active”.
Consider `NC[C@H]1O[C@H](O[C@H]2[C@H](O)[C@@H](O[C@H]3O[C@H](CO)[C@@H](O)[C@H](N)[C@H]3O)[C@H](N)C[C@@H]2N)[C@H](O)[C@@H](O)[C@@H]1O` [KANAMYCIN], for which the IC50 result was “Not Active”.

A further assay concerns the target T3, Polyunsaturated fatty acid lipoxygenase ALOX15 (Oryctolagus cuniculus, UniProt P12530).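 Note: inhibition of 15-lipoxygenase enzyme activity measured with linoleic acid as the substrate; in other assays of this panel Not Active means under 50% inhibition at 10 µM.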
T3 sequence (P12530 whole entry): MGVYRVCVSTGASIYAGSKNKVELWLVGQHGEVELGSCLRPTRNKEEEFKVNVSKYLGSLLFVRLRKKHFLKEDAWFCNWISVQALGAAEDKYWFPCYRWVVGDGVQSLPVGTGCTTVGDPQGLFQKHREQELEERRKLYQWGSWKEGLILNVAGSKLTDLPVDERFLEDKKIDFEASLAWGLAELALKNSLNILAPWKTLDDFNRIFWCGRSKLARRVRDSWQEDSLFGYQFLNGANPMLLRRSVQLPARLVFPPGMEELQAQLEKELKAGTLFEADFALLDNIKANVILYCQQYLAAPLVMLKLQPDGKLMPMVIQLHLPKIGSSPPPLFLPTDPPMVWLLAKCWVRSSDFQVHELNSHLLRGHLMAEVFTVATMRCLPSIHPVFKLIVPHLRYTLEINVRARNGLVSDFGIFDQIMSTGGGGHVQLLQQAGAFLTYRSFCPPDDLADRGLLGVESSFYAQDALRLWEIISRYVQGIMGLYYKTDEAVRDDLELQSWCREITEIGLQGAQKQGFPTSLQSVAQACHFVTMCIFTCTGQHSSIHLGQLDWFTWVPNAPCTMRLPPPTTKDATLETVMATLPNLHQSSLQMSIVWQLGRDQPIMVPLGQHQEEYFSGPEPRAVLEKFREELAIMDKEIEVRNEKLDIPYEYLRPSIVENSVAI
Description: biochemical. The assay is classed as tissue-based, Reticulocytes. The conditions noted are these: reticulocytes.
On to `Clc1cc2c(cc1Cl)Oc1cc(Cl)c(Cl)cc1O2` [2,3,7,8-TETRACHLORODIBENZO-P-DIOXIN], for which the IC50 entry is reported as “Not Active”.
The same measure, in the same setting: for `C=C1/C(=C\C=C2/CCC[C@]3(C)[C@@H]([C@H](C)CCCC(C)C)CC[C@@H]23)C[C@@H](O)C[C@@H]1O` [ALFACALCIDOL] the value was “Not Active”; for `CCCCCC[C@H]1C(=O)O[C@H](C)[C@H](NC(=O)c2cccc(NC=O)c2O)C(=O)O[C@@H](C)[C@@H]1OC(=O)CC(C)C` [ANTIMYCIN A], “Not Active”.
On to `C[C@@H]1CC[C@H]2[C@@H](C)C(=O)O[C@@H]3O[C@@]4(C)CC[C@@H]1[C@]32OO4` [ARTEMISININ], for which the IC50 result is on record as “Not Active”.
On to `N=C(N)N/N=C/c1c(Cl)cccc1Cl` [GUANABENZ], for which the IC50 entry is “Not Active”.
On the same count and under the same terms, for `NC[C@H]1O[C@H](O[C@H]2[C@H](O)[C@@H](O[C@H]3O[C@H](CO)[C@@H](O)[C@H](N)[C@H]3O)[C@H](N)C[C@@H]2N)[C@H](O)[C@@H](O)[C@@H]1O` [KANAMYCIN] the value was “Not Active”.

In a further assay the target is Matrix metalloproteinase-9 (Homo sapiens, UniProt P14780). The experiment in a line: biochemical. Type of assay: cell-based.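 Note: inhibition of isolated MMP-9 enzyme activity toward a synthetic peptide substrate, from the DrugMatrix protease screening panel; in other assays of this panel Not Active means under 50% inhibition at 10 µM.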
Sequence of Matrix metalloproteinase-9 (P14780 whole entry): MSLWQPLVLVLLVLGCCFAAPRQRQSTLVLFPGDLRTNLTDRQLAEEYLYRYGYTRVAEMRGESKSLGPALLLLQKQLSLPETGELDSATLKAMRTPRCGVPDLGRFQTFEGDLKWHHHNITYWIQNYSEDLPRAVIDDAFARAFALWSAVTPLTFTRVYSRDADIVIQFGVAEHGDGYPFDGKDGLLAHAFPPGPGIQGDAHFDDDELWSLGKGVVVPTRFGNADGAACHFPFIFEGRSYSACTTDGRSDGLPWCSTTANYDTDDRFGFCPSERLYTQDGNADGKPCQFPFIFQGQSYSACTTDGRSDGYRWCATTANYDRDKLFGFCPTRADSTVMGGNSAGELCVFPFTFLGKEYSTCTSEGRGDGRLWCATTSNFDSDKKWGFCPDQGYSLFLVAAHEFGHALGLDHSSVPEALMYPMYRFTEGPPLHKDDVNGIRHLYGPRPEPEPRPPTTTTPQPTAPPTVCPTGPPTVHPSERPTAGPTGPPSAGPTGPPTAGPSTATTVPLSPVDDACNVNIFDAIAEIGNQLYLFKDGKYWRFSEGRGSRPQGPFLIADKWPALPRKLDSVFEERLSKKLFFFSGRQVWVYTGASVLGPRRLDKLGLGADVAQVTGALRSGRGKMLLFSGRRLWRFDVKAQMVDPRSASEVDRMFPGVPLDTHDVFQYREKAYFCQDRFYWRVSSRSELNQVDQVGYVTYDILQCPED
Conditions: not given
As to `Clc1cc2c(cc1Cl)Oc1cc(Cl)c(Cl)cc1O2` [2,3,7,8-TETRACHLORODIBENZO-P-DIOXIN], the IC50 result is reported as “Not Active”.
`C=C1/C(=C\C=C2/CCC[C@]3(C)[C@@H]([C@H](C)CCCC(C)C)CC[C@@H]23)C[C@@H](O)C[C@@H]1O` [ALFACALCIDOL]: the IC50 result was “Not Active”.
Turning to `CCCCCC[C@H]1C(=O)O[C@H](C)[C@H](NC(=O)c2cccc(NC=O)c2O)C(=O)O[C@@H](C)[C@@H]1OC(=O)CC(C)C` [ANTIMYCIN A], the IC50 entry was “Not Active”.
The same measure, in the same setting: for `C[C@@H]1CC[C@H]2[C@@H](C)C(=O)O[C@@H]3O[C@@]4(C)CC[C@@H]1[C@]32OO4` [ARTEMISININ] the value was “Not Active”; for `N=C(N)N/N=C/c1c(Cl)cccc1Cl` [GUANABENZ], “Not Active”; for `NC[C@H]1O[C@H](O[C@H]2[C@H](O)[C@@H](O[C@H]3O[C@H](CO)[C@@H](O)[C@H](N)[C@H]3O)[C@H](N)C[C@@H]2N)[C@H](O)[C@@H](O)[C@@H]1O` [KANAMYCIN], “Not Active”.
